Measurements as given in patent US8088936B2, “Leukotriene B4 inhibitors” (Hoffman-La Roche Inc., priority 2009, dated 2012).

Tested on: Human leukemia HL-60 cells endogenously expressing BLT1 and BLT2 receptors
Assay: Ca2+ flux assay for LTB4 antagonist assay (HL-60 FLIPR)
Format: cell-based
Conditions: retinoic acid induced HL-60 cells, inhibition of LTB4-induced Ca2+ flux, 30 min preincubation; read-out: LTB4 antagonism (HL-60 FLIPR)

SMILES | IC50
COCc1cc(OCCCCCCc2cccc(OCCCC(=O)O)c2CCC(=O)O)cc(-c2ccc(S(C)(=O)=O)cc2)c1 [Example 24, 4-[2-(2-Carboxy-ethyl)-3-[6-(4′-methanesulfonyl-5-methoxymethyl-biphenyl-3-yloxy)-hexyl]-phenoxy]-butyric acid] | 6.83 nM
CCOc1cc(OCCCCCCc2cccc(OCCCC(=O)O)c2CCC(=O)O)cc(-c2ccnc(Cl)c2)c1 [Example 52, 4-[2-(2-Carboxy-ethyl)-3-[6-[3-(2-chloro-pyridin-4-yl)-5-ethoxy-phenoxy]-hexyl]-phenoxy]-butyric acid] | 6.94 nM
CCOc1cc(OCCCCCCc2cccc(OCCCC(=O)O)c2CCC(=O)O)cc(-c2ccc(F)c(F)c2)c1 [Example 50, 4-[2-(2-Carboxy-ethyl)-3-[6-(3′,4′-difluoro-5-ethoxy-biphenyl-3-yloxy)-hexyl]-phenoxy]-butyric acid] | 8.27 nM
